The source of these data is patent publication US20240301003A1 (NoNO Inc., priority 2021, published 2024).

In data set [1] the target is PSD95PDZ2 (Homo sapiens, UniProt P78352). Kind of data set: Competitive ELISA with biotinylated-NA-1. As to conditions: PSD-95 domain 2, FIG. 12. (In general: An ELISA detects its analyte on a solid surface through an enzyme-linked reagent.)
Data set [2] in a line: Pharmacokinetic analysis in rats (subcutaneous, pulmonary instillation, intravenous, intramuscular), HPLC.
Experimental: Rats were anaesthetized in the supine position (Isoflurane 1.5--%) and allowed to breath spontaneously in 0.5 L/min 02. The left femoral artery was cannulated for blood sampling.
Test agents were prepared at the stablish concentration in a total volume of vehicle. Pulmonary instillation was performed by intubation with a 14G catheter connected to a 1 cc syringe and the test agent will be delivered through the catheter. Subcutaneous (SQ or SC) injection was injected into the area of the left flank, no more than 2 ml of total volume per site.
Each dose was evaluated in 3 rats for each administration strategy. […] For the first experiment, evaluating two different administration routes (SQ and PI), blood samples were collected at 8 different timepoints: Pre and at 7 additional times (1, 2.5, 5, 10, 15, 30, 60 min) post dose (250 ul/sample).
HPLC quantification: Plasma was separated from blood and stored at −−−80° C. until used. […] Standard curves for HPLC were generated from plasma samples spiked with known quantities of test agent.
Data set [3] has as its target T1, plasmin (Homo sapiens, UniProt P00747). The experiment in a line: in vitro. As to conditions: isolated enzyme plasmin.
For data set [4], the target named is T1, plasmin. The experiment in a line: Plasmin sensitivity: peptides in PBS challenged with 10 ug/ml plasmin, HPLC. As to conditions: 10 ug/mL plasmin, 45 minutes (FIG. 29).
Data set [5] relates to histamine release. The experiment in a line: Histamine release in rats, plasma histamine ELISA. As to conditions: co-administration of lodoxamide (0.6 mg/kg).
Experimental: Histamine levels were quantified by using commercially available histamine ELISA assay kit (Histamine ELISA-H1531-K01, Eagle Bioscience). The plates were coated with the plasma samples (50 ul/well) incubated for 60 minutes at room temperature on an orbital shaker with medium frequency. Then 100 ul of enzyme conjugate was added to the wells and incubated for 20 minutes at room temperature. […] The reaction was stopped with 100 ul H2SO4. Absorbance was determined on an ELISA plate reader at 450 nm.
Blood samples were taken at pre-injection and at 0, 1, 2.5, 5, 10, 15, 30- and 60-minutes post dose and used for histamine levels quantification using commercially available kit.
Data set [6] in a line: MTD studies and renal toxicity in rats (creatinine, BUN). As to conditions: rats, addition of sodium benzoate (NA-3+SB).
For data set [7], the system named is plasmin. The experiment in a line: 10 ug/mL plasmin. As to conditions: up to 45 minutes.
Data set [8] has as its system plasmin. The experiment in a line: peptides in PBS challenged with 10 ug/ml plasmin. As to conditions: 37 C, up to 30 minutes.

Where a SMILES comes first, the peptide text is derived from it. Where no end group is shown, it is not given here. [ ]: non-standard residue; d: D form.

What is called fraction remaining is what is left of the initial amount, in per cent.

T1 sequence (P00747 581-810 limits assumed, species assumed): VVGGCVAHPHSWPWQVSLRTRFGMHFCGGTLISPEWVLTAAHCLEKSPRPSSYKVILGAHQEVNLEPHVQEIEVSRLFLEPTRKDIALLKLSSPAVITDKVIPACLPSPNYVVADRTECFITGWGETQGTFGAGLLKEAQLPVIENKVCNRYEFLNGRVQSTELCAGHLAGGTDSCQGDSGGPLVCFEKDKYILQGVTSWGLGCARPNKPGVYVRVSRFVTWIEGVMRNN
T1 sequence (P00747 97-580 partner limits assumed, species assumed): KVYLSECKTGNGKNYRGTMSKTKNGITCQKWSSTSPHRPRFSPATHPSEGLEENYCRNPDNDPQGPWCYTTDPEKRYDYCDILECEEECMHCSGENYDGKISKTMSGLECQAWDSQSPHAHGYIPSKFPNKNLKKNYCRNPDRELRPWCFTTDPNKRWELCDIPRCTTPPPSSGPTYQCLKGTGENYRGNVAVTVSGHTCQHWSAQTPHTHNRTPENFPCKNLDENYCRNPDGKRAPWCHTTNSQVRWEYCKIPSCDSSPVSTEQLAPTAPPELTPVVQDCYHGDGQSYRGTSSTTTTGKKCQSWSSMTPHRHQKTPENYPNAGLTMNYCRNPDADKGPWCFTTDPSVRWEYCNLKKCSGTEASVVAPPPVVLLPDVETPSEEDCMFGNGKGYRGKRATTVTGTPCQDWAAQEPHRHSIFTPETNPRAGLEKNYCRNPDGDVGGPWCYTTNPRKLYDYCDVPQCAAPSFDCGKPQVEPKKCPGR
Sequence of PSD95PDZ2 (P78352 160-246 limits assumed): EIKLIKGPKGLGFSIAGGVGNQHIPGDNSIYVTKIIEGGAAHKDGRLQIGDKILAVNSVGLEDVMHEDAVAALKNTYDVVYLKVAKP

In the case of `CC[C@@H](C)[C@@H](NC(=O)[C@@H](CO)NC(=O)[C@@H](CO)NC(=O)[C@@H](CC(C)C)NC(=O)[C@@H](CCCCN)NC(=O)[C@@H](CCCNC(=N)N)NC(=O)[C@@H](CCCNC(=N)N)NC(=O)[C@@H](CCCNC(=N)N)NC(=O)[C@@H](CCC(N)=O)NC(=O)[C@@H](CCCNC(=N)N)NC(=O)[C@@H](CCCNC(=N)N)NC(=O)[C@@H](CCCCN)NC(=O)[C@@H](CCCCN)NC(=O)[C@@H](CCCNC(=N)N)NC(=O)CNC(=O)[C@H](N)Cc1ccc(O)cc1)C(=O)N[C@H](CCC(=O)O)C(=O)N[C@H](CO)C(=O)N[C@H](CC(=O)O)C(=O)N[C@@H](C(=O)O)C(C)C` [D-NA-1, ygrkkrrqrrrklssiesdv] (HELM PEPTIDE1{[dY].G.[dR].[dK].[dK].[dR].[dR].[dQ].[dR].[dR].[dR].[dK].[dL].[dS].[dS].[dI].[dE].[dS].[dD].[dV]}$$$$V2.0), the “EC50 (compared between peptides)” value in data set [1] is given as “about ten-fold lower”. In addition, in data set [2] (pulmonary instillation), the “plasma concentration and plasma exposure relative to intrapulmonary NA-1” value is “higher plasma concentration and a greater plasma exposure”. Moreover, in data set [2] (subcutaneous 25 mg/kg), the “AUC compared with subcutaneous NA-1” value is “increased Cmax and AUC relative to subcutaneous NA-1 but not to the same extent”; the “Cmax compared with subcutaneous NA-1” value was “increased Cmax and AUC relative to subcutaneous NA-1 but not to the same extent”. As to `CC[C@H](C)[C@H](NC(=O)[C@H](CO)NC(=O)[C@H](CO)NC(=O)[C@H](CC(C)C)NC(=O)[C@H](CCCCN)NC(=O)[C@@H](CCCNC(=N)N)NC(=O)[C@H](CCCNC(=N)N)NC(=O)[C@H](CCCNC(=N)N)NC(=O)[C@H](CCC(N)=O)NC(=O)[C@@H](CCCNC(=N)N)NC(=O)[C@H](CCCNC(=N)N)NC(=O)[C@H](CCCCN)NC(=O)[C@H](CCCCN)NC(=O)[C@@H](CCCNC(=N)N)NC(=O)CNC(=O)[C@@H](N)Cc1ccc(O)cc1)C(=O)N[C@@H](CCC(=O)O)C(=O)N[C@@H](CO)C(=O)N[C@@H](CC(=O)O)C(=O)N[C@H](C(=O)O)C(C)C` [NA-4.4.1] (HELM PEPTIDE1{Y.G.[dR].K.K.R.[dR].Q.R.R.[dR].K.L.S.S.I.E.S.D.V}$$$$V2.0; N-terminus and C-terminus assumed), the amount remaining at 0.5 h, 65 ug/ml in data set [3] is around 100%. The same measure, in the same setting: the value for `CC[C@H](C)[C@H](NC(=O)[C@H](CO)NC(=O)[C@H](CO)NC(=O)[C@H](CC(C)C)NC(=O)[C@H](CCCCN)NC(=O)[C@@H](CCCNC(=N)N)NC(=O)[C@H](CCCNC(=N)N)NC(=O)[C@H](CCCNC(=N)N)NC(=O)[C@@H](CCC(N)=O)NC(=O)[C@H](CCCNC(=N)N)NC(=O)[C@H](CCCNC(=N)N)NC(=O)[C@@H](CCCCN)NC(=O)[C@H](CCCCN)NC(=O)[C@H](CCCNC(=N)N)NC(=O)CNC(=O)[C@@H](N)Cc1ccc(O)cc1)C(=O)N[C@@H](CCC(=O)O)C(=O)N[C@@H](CO)C(=O)N[C@@H](CC(=O)O)C(=O)N[C@H](C(=O)O)C(C)C` [NA-411.4] (HELM PEPTIDE1{Y.G.R.K.[dK].R.R.[dQ].R.R.[dR].K.L.S.S.I.E.S.D.V}$$$$V2.0; N-terminus and C-terminus assumed) was around 100%. Regarding `CC[C@H](C)[C@H](NC(=O)[C@@H](CCCNC(=N)N)NC(=O)[C@H](CCCNC(=N)N)NC(=O)[C@@H](CCCNC(=N)N)NC(=O)[C@H](CCC(N)=O)NC(=O)[C@@H](CCCNC(=N)N)NC(=O)[C@@H](CCCNC(=N)N)NC(=O)[C@@H](CCCCN)NC(=O)[C@@H](CCCCN)NC(=O)[C@@H](N)CCCNC(=N)N)C(=O)N[C@@H](CCC(=O)O)C(=O)N[C@@H](CO)C(=O)N[C@@H](CC(=O)O)C(=O)N[C@H](C(=O)O)C(C)C` [NoNO 411, RkkrrQrRrIESDV] (HELM PEPTIDE1{R.[dK].[dK].[dR].[dR].Q.[dR].R.[dR].I.E.S.D.V}$$$$V2.0; N-terminus and C-terminus assumed), the plasmin resistance result in data set [4] is given as “resistance to plasmin”. On the same count and under the same terms, the result for `CC[C@H](C)[C@H](NC(=O)[C@H](CCCNC(=N)N)NC(=O)[C@@H](CCCNC(=N)N)NC(=O)[C@@H](CCCNC(=N)N)NC(=O)[C@H](CCC(N)=O)NC(=O)[C@@H](CCCNC(=N)N)NC(=O)[C@H](CCCNC(=N)N)NC(=O)[C@@H](CCCCN)NC(=O)[C@H](CCCCN)NC(=O)[C@@H](N)CCCNC(=N)N)C(=O)N[C@@H](CCC(=O)O)C(=O)N[C@@H](CO)C(=O)N[C@@H](CC(=O)O)C(=O)N[C@H](C(=O)O)C(C)C` [NoNO 414, RKkRrQrrRIESDV] (HELM PEPTIDE1{R.K.[dK].R.[dR].Q.[dR].[dR].R.I.E.S.D.V}$$$$V2.0) reads “resistance to plasmin”.

`CC[C@H](C)[C@H](NC(=O)[C@H](CCCNC(=N)N)NC(=O)[C@H](CCCNC(=N)N)NC(=O)[C@@H](CCCNC(=N)N)NC(=O)[C@H](CCC(N)=O)NC(=O)[C@@H](CCCNC(=N)N)NC(=O)[C@H](CCCNC(=N)N)NC(=O)[C@H](CCCCN)NC(=O)[C@H](CCCCN)NC(=O)[C@H](N)CCCNC(=N)N)C(=O)N[C@@H](CCC(=O)O)C(=O)N[C@@H](CO)C(=O)N[C@@H](CC(=O)O)C(=O)N[C@H](C(=O)O)C(C)C` [NoNO 415, rKKRrQrRRIESDV] (HELM PEPTIDE1{[dR].K.K.R.[dR].Q.[dR].R.R.I.E.S.D.V}$$$$V2.0): the plasmin resistance entry in data set [4] is listed as “resistance to plasmin”.

Take `N#Cc1cc(NC(=O)C(=O)O)c(Cl)c(NC(=O)C(=O)O)c1` [lodoxamide, 2-[2-chloro-5-cyano-3-(oxaloamino)anilino]-2-oxoacetic acid, reference compound]: in data set [5], the “effect on histamine induced by D-Tat-L-2B9C at 7.6 mg/kg IV” value is listed as “abrogated”. For `O=C([O-])c1ccccc1.[Na+]` [sodium benzoate, reference compound], the “effect on creatinine and BUN levels induced by 25 mg/kg NA-3” value in data set [6] is “reduces the creatinine and BUN levels”.

As to RKkRrQrrRIESDV, in data set [7], the not cleaved result is “no degradation observed in 45 minutes”. The same measure, in the same setting: the value for “RkkrrQrRrIESDV (HELM PEPTIDE1{R.[dK].[dK].[dR].[dR].Q.[dR].R.[dR].I.E.S.D.V}$$$$V2.0; N-terminus and C-terminus assumed; SMILES CC[C@H](C)[C@H](NC(=O)[C@@H](CCCNC(=N)N)NC(=O)[C@H](CCCNC(=N)N)NC(=O)[C@@H](CCCNC(=N)N)NC(=O)[C@H](CCC(N)=O)NC(=O)[C@@H](CCCNC(=N)N)NC(=O)[C@@H](CCCNC(=N)N)NC(=O)[C@@H](CCCCN)NC(=O)[C@@H](CCCCN)NC(=O)[C@@H](N)CCCNC(=N)N)C(=O)N[C@@H](CCC(=O)O)C(=O)N[C@@H](CO)C(=O)N[C@@H](CC(=O)O)C(=O)N[C@H](C(=O)O)C(C)C)” was “no degradation observed in 45 minutes”. In the case of “YGRKkRRqRRrKLSSIESDV (YGRK[dK]RR[dQ]RR[dR]KLSSIESDV)”, the not cleaved entry in data set [8] was “essentially 100% intact peptide after 30 minutes”. On the same count and under the same terms, the value for “YGrKKRrQRRrKLSSIESDV (YG[dR]KKR[dR]QRR[dR]KLSSIESDV)” was “essentially 100% intact peptide after 30 minutes”.

With “YGrKKRrQrRRkLSSIESDV (YG[dR]KKR[dR]Q[dR]RR[dK]LSSIESDV)”, the not cleaved result in data set [8] is on record as “essentially 100% intact peptide after 30 minutes”.

Regarding rKKRrQrRRIESDV, in data set [7], the not cleaved result was “no degradation observed in 45 minutes”.
